# Data: patent US7812170B2, “Insecticides” (Syngenta Crop Protection, Inc., priority 2004, dated 2010)
# Key:
# Heliothis virescens = experiment: Activity against Heliothis virescens (foliar application); type: in vivo; conditions: 144 h, 400 ppm active ingredient, sprayed young soya plants, 1st instar caterpillars, 6 days, read-out: percentage reduction in the population and in the feeding damage (% activity)
# Method: (§1) Activity Against Heliothis virescens (Foliar Application) Young soya plants are sprayed with an aqueous emulsion spray mixture comprising 400 ppm of active ingredient and, after the spray coating has dried on, populated with 10 caterpillars (1st instar) of Heliothis virescens and introduced into a plastic container. 6 days later, the percentage reduction in the population and in the feeding damage (% activity) are determined by comparing the number of dead caterpillars and the feeding damage between the treated and untreated plants.
# Plutella xylostella = experiment: Activity against Plutella xylostella (sprayed cabbage plants); type: in vivo; conditions: 72 h, 400 ppm active ingredient, sprayed young cabbage plants, 3rd instar caterpillars, 3 days, read-out: percentage reduction in the population and in the feeding damage (% activity)
# Method: as §1, with “Plutella xylostella” for “Heliothis virescens (Foliar Application)”, “cabbage” for “soya”, “(3rd” for “(1st”, “Plutella xylostella” for “Heliothis virescens”, “3” for “6”
# Spodoptera littoralis = experiment: Activity against Spodoptera littoralis (sprayed soya plants); type: in vivo; conditions: 72 h, 400 ppm active ingredient, sprayed young soya plants, 1st instar caterpillars, 3 days, read-out: percentage reduction in the population and in the feeding damage (% activity)
# Method: as §1, with “Spodoptera littoralis” for “Heliothis virescens (Foliar Application)”, “Spodoptera littoralis” for “Heliothis virescens”, “3” for “6”
# Diabrotica balteata = experiment: Activity against Diabrotica balteata (sprayed maize seedlings); type: in vivo; conditions: 144 h, 400 ppm active ingredient, 2nd instar larvae, 6 days, read-out: percentage reduction in the population (% activity)
# Method: Activity Against Diabrotica balteata Maize seedlings are sprayed with an aqueous emulsion spray mixture comprising 400 ppm of active ingredient and, after the spray coating has dried on, populated with 10 larvae (2nd instar) of Diabrotica balteata and introduced into a plastic container. 6 days later, the percentage reduction in the population (% activity) is determined by comparing the number of dead larvae between the treated and untreated plants.
Compound,inhibition at 400 ppm (Heliothis virescens),inhibition at 400 ppm (Plutella xylostella),inhibition at 400 ppm (Spodoptera littoralis),inhibition at 400 ppm (Diabrotica balteata),melting point
CNC(=O)c1cc2ccccc2c(C)c1NC(=O)c1cc(C(F)(F)F)nn1-c1ncccc1Cl [Compound T8.1],> 80%,> 80%,> 80%,,
CNC(=O)c1cc2cc(C#N)ccc2c(Cl)c1NC(=O)c1cc(C(F)(F)F)nn1-c1ncccc1Cl [Compound T5.1],> 80%,> 80%,> 80%,,
Cc1c(NC(=O)c2cc(C(F)(F)F)nn2-c2ncccc2Cl)c(C(=O)NC(C)C)nc2ccccc12 [Compound T75.3],> 80%,> 80%,> 80%,,
CC(C)NC(=O)c1cc2ccccc2c(Cl)c1NC(=O)c1cc(C(F)(F)F)nn1-c1ncccc1Cl [Compound T1.3],> 80%,> 80%,> 80%,> 80%,
O=C(N[C@@H]1Cc2ccccc2C[C@@H]1C(=O)NC1CC1)c1cc(C(F)(F)F)nn1-c1ncccc1Cl [Compound T72.207],,,,,230 to 233 °C
CC(C)NC(=O)c1cc2cc(Cl)ccc2c(Cl)c1NC(=O)c1cc(C(F)(F)F)nn1-c1ncccc1Cl [Compound T20.3],> 80%,> 80%,> 80%,,
CC(C)NC(=O)c1cc2ccccc2c(Br)c1NC(=O)c1cc(C(F)(F)F)nn1-c1ncccc1Cl [Compound T7.3],> 80%,> 80%,> 80%,> 80%,
CNC(=O)c1c(NC(=O)c2cc(C(F)(F)F)nn2-c2ncccc2Cl)sc2c1CCCC2 [Compound T46.1],,,,,261 to 263 °C
CNC(=O)c1cc2c(c(Cl)c1NC(=O)c1cc(C(F)(F)F)nn1-c1ncccc1Cl)OC(F)(F)O2,,,,,265 to 267 °C
CNC(=O)c1sc2nsc(C)c2c1NC(=O)c1cc(C(F)(F)F)nn1-c1ncccc1Cl [Compound T88.1],,,,,264 to 266 °C
CNC(=O)c1cc2c(nc1NC(=O)c1cc(C(F)(F)F)nn1-c1ncccc1Cl)CCCC2 [Compound T50.1],,,,,145 to 147 °C
CNC(=O)c1c(NC(=O)c2cc(C(F)(F)F)nn2-c2ncccc2Cl)nc2c(c1-c1ccccc1)CCCCC2 [Compound T52.1],,,,,211 to 213 °C
CNC(=O)c1cc2c(c(C)c1NC(=O)c1cc(C(F)(F)F)nn1-c1ncccc1Cl)OC(C)(C)O2,,,,,242 to 244 °C
CC(C)NC(=O)c1c(NC(=O)c2cc(C(F)(F)F)nn2-c2ncccc2Cl)sc2c1CCCC2 [Compound T46.3],,,,,246 to 248 °C
CC(C)NC(=O)c1cc2c([N+](=O)[O-])cccc2c(Cl)c1NC(=O)c1cc(C(F)(F)F)nn1-c1ncccc1Cl [Compound T76.3],> 80%,> 80%,> 80%,,
CC(C)NC(=O)c1c(NC(=O)c2cc(C(F)(F)F)nn2-c2ncccc2Cl)nc2c(c1-c1ccccc1)CCCCC2 [Compound T52.3],,,,,269 to 270 °C
CC1c2ccccc2C[C@H](C(=O)NC2CC2)[C@@H]1NC(=O)c1cc(C(F)(F)F)nn1-c1ncccc1Cl (stereo partly drawn) [Compound T73.207],,,,,192 to 194 °C
CNC(=O)c1sc2cccc(Cl)c2c1NC(=O)c1cc(C(F)(F)F)nn1-c1ncccc1Cl [Compound T79.1],> 80%,> 80%,,,
CNC(=O)c1cc2cc(Cl)ccc2c(Cl)c1NC(=O)c1cc(C(F)(F)F)nn1-c1ncccc1Cl [Compound T20.1],> 80%,> 80%,> 80%,,
CCNC(=O)c1cc2cc(Br)ccc2c(Cl)c1NC(=O)c1cc(C(F)(F)F)nn1-c1ncccc1Cl [Compound T2.2],> 80%,> 80%,> 80%,,
CC(C)NC(=O)[C@H]1Cc2ccccc2C[C@H]1NC(=O)c1cc(C(F)(F)F)nn1-c1ncccc1Cl [Compound T72.3],,,,,229 to 232 °C
CNC(=O)c1c(NC(=O)c2cc(C(F)(F)F)nn2-c2ncccc2Cl)nc2c(c1-c1ccccc1)CCCC2 [Compound T51.1],,,,,165 to 168 °C
CNC(=O)[C@H]1Cc2ccccc2C(C)[C@H]1NC(=O)c1cc(C(F)(F)F)nn1-c1ncccc1Cl (stereo partly drawn) [Compound T73.1],,,,,205 to 207 °C

Compound,inhibition at 400 ppm (Heliothis virescens),inhibition at 400 ppm (Plutella xylostella),inhibition at 400 ppm (Spodoptera littoralis),inhibition at 400 ppm (Diabrotica balteata),melting point
Cc1c(NC(=O)c2cc(C(F)(F)F)nn2-c2ncccc2Cl)c(C(=O)NC(C)C)cc2c1OC(C)(C)O2,,,,,256 to 258 °C
CC(C)NC(=O)c1c(NC(=O)c2cc(C(F)(F)F)nn2-c2ncccc2Cl)nc2c(c1-c1cccc(Cl)c1)CCCC2 [Compound T53.3],,,,,259 to 260 °C
CC(C)NC(=O)c1c(NC(=O)c2cc(C(F)(F)F)nn2-c2ncccc2Cl)nc2c(c1-c1ccccc1)CCCC2 [Compound T51.3],,,,,146 to 148 °C
CCNC(=O)c1cc2cc(Br)ccc2c(Br)c1NC(=O)c1cc(C(F)(F)F)nn1-c1ncccc1Cl [Compound T9.2],> 80%,> 80%,> 80%,,
CNC(=O)c1cc2c([N+](=O)[O-])cccc2c(Cl)c1NC(=O)c1cc(C(F)(F)F)nn1-c1ncccc1Cl [Compound T76.1],> 80%,> 80%,> 80%,,
CNC(=O)c1c(NC(=O)c2cc(C(F)(F)F)nn2-c2ncccc2Cl)c(C)nc2ccccc12 [Compound T81.1],> 80%,> 80%,,,
CC(C)NC(=O)c1cc(Cl)c2ccccc2c1NC(=O)c1cc(C(F)(F)F)nn1-c1ncccc1Cl [Compound T22.3],,> 80%,,,
CNC(=O)c1c(NC(=O)c2cc(C(F)(F)F)nn2-c2ncccc2Cl)sc2c1CCC(OC)C2 (stereo not drawn) [Compound T74.1],,,,,133 to 135 °C
CNC(=O)c1cc2c(c(Br)c1NC(=O)c1cc(C(F)(F)F)nn1-c1ncccc1Cl)OC(C)(C)O2,,,,,274 to 276 °C
CNC(=O)c1cc2cc(Br)ccc2c(Cl)c1NC(=O)c1cc(C(F)(F)F)nn1-c1ncccc1Cl [Compound T2.1],> 80%,> 80%,> 80%,,
CNC(=O)[C@H]1Cc2ccccc2C[C@H]1NC(=O)c1cc(C(F)(F)F)nn1-c1ncccc1Cl [Compound T72.1],,,,,226 to 228 °C
CC(C)NC(=O)c1cc2cc(Br)ccc2c(Br)c1NC(=O)c1cc(C(F)(F)F)nn1-c1ncccc1Cl [Compound T9.3],> 80%,> 80%,> 80%,,
CNC(=O)c1c(NC(=O)c2cc(C(F)(F)F)nn2-c2ncccc2Cl)nc2c(c1-c1cccc(Cl)c1)CCCC2 [Compound T53.1],,,,,183 to 185 °C
CC(C)NC(=O)c1cc2c(nc1NC(=O)c1cc(C(F)(F)F)nn1-c1ncccc1Cl)CCCC2 [Compound T50.3],,,,,143 to 145 °C
CNC(=O)c1cc2ccccc2c([N+](=O)[O-])c1NC(=O)c1cc(C(F)(F)F)nn1-c1ncccc1Cl [Compound T78.1],,> 80%,,,
CNC(=O)c1nc2ccccc2c(C)c1NC(=O)c1cc(C(F)(F)F)nn1-c1ncccc1Cl [Compound T75.1],> 80%,> 80%,> 80%,,
CNC(=O)c1cc2cc(Br)ccc2c(Br)c1NC(=O)c1cc(C(F)(F)F)nn1-c1ncccc1Cl [Compound T9.1],> 80%,> 80%,> 80%,,
CC(C)NC(=O)c1cc2cc(C#N)ccc2c(Cl)c1NC(=O)c1cc(C(F)(F)F)nn1-c1ncccc1Cl [Compound T5.3],> 80%,> 80%,> 80%,,
Cc1snc2sc(C(=O)NC(C)C)c(NC(=O)c3cc(C(F)(F)F)nn3-c3ncccc3Cl)c12 [Compound T88.3],,,,,261 to 263 °C
CSCC(C)(C)NC(=O)[C@H]1Cc2ccccc2C[C@H]1NC(=O)c1cc(C(F)(F)F)nn1-c1ncccc1Cl [Compound T72.273],,,,,184 to 186 °C
CC(C)NC(=O)[C@H]1Cc2ccccc2C(C)[C@H]1NC(=O)c1cc(C(F)(F)F)nn1-c1ncccc1Cl (stereo partly drawn) [Compound T73.3],,,,,223 to 225 °C
COC1CCc2c(sc(NC(=O)c3cc(C(F)(F)F)nn3-c3ncccc3Cl)c2C(=O)NC(C)C)C1 (stereo not drawn) [Compound T74.3],,,,,206 to 207 °C
